From EP1279727A1, “TRANSFORMATION AND MODIFICATION OF NATURAL DRUG BY INTESTINAL PROBIOTIC FERMENTATIVE CULTURE” (Wu, Bingxin, priority 2000, dated 2002)
Read-outs that look alike come from different tables or passages of the source.

Experiments:
H22 hepatocarcinoma [1] = format: in vivo; details: H22 mouse, single therapy (subgroup 2 preparation alone; subgroup 3 5-Fu 15 mg/kg alone), 7 days
Description: 1. […] The resultant model mouse is grouped randomly into eight groups.
Each mouse in first four groups is treated for observing effect of the present natural medicine preparation on the efficiency of anti-cancer chemical agent, fliorouracil (5-Fu, 15 mg/kg), mice in the rest four groups is for the effect of the present compositions on the efficiency of radiotherapy for cancer (^60Co irradiation on whole body, 4.5 Gray /day/animal).
The combination therapy to both animal groups (4 subgroups in each group) starts from the next day of grafting tumor cells and continues for 7 days.
The synergetic effect of the present composition on chemical therapy or radiotherapy for cancer is calculated by the inhibition rate according to the following Burgi's correction equation: Q= E (A+B)/EA+EB-EAxEB [formula] wherein, E (A+B) is the cancer inhibition rate of the combined therapy, EA and EB are the cancer inhibition rate of the present composition administration, or the chemical therapy (or radiotherapy) alone.
Result: (1) If Q calculated is lower than 0.85, it is considered as an antergenic effect between combined therapy; (2) if Q is between 0.85 and 1.15, it is considered as an addictive effect; and (3) if Q is above 1.15, then it is deemed as synergetic effect between combined therapy. The particular results are listed in table 3 and table 4, respectively.

S180 sacoma = details: S180 mouse, positive control CTX subcutaneously
Description: (§1) Using species Kunming mouse subcutaneously grafted S180 sacoma or H22 hepatocarcinoma as cancer-harboring model animal, the inhibition activity on growth of cancer is observed with respect to extract of anti-cancer natural medicines which converted or unconverted by the above intestinal probiotics in either large dose or small dose.
(§2) For this purpose, 120 mice weighed from about 18-25g are grafted subcutaneously at right axilla with 1 x 10^7 cells/ml of S180 sacoma or H22 hepatocarcinoma (0.2ml/mouse) in order to obtain solid tumor model animal. The resultant model animal is grouped randomly into 12 groups. Each animal in treatment group is orally administrated with unfermented (in 1:1 dilution) or fermented (in 1:4 dilution) extract of natural medicines daily.
(§3) The administration of extract of natural medicine starts at the forth day from the date grafting cancer cells, i.e., the time when solid tumor can be touched by hand. After continuously administration over 10 days, the weight of animal and solid tumor are measured, respectively, and then inhibition rate of cancer can be calculated accordingly. The treatment experiments on the two types of cancer are carried out in triplicate.

H22 hepatocarcinoma [2] = details: H22 mouse, positive control CTX subcutaneously
Description: as §1, §2, §3

Structure (SMILES) | inhibition rate (H22 hepatocarcinoma [1]) | tumor weight (X±SD) (H22 hepatocarcinoma [1]) | animal weight before ad. (S180 sacoma) | animal weight after ad. (S180 sacoma; after 10 days) | inhibition rate (S180 sacoma; after 10 days) | solid tumor weight (X±SD) (S180 sacoma; after 10 days) | animal weight before ad. (H22 hepatocarcinoma [2]) | animal weight after ad. (H22 hepatocarcinoma [2]; after 10 days) | inhibition rate (H22 hepatocarcinoma [2]; after 10 days) | solid tumor weight (X±SD) (H22 hepatocarcinoma [2]; after 10 days)
O=c1[nH]cc(F)c(=O)[nH]1 [5-Fu, fliorouracil] | 56.7% | 1.06±0.31 |  |  |  |  |  |  |  | 
O=P1(N(CCCl)CCCl)NCCCO1 (stereo not shown) [positive control, cyclophosphamide] |  |  | 20.1 | 21.2 | 61.0% | 0.55±0.19 | 21.2 | 27.9 | 62.4% | 0.72±0.36
